Laboratory results: US11254663B2 (BRISTOL-MYERS SQUIBB COMPANY, priority 2019, dated 2022)
Like-named read-outs stand apart in the source and are kept apart here.

Target: FXR (Homo sapiens (Human), UniProt Q96RI1)
Test: transient human FXR/Gal4-luciferase reporter assay
Assay type: cell-based
How it was run: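 HEK293 cells stably carrying a 5×Gal4 response element–firefly luciferase reporter were transiently transfected overnight with a Gal4 DBD–human FXR LBD fusion plasmid. Compound was added in DMSO and cells were incubated overnight at 37 °C, 5% CO2. Activity was read as Steady-Glo luminescence.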

[1] = Gal4-hFXR fusion construct, HEK293 reporter cells, response relative to 8 μM GW-4064

Sequence of FXR (Q96RI1 262-486): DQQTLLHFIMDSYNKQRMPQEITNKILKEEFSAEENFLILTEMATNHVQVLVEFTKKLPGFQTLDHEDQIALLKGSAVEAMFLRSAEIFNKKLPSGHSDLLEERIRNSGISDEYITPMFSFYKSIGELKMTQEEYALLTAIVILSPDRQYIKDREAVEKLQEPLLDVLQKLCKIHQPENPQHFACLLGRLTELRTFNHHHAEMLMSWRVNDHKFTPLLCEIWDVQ

Molecule `CC(F)(F)c1nc(C23CCC(CN(C(=O)C45CC(F)(C4)C5)c4cccc(C5CC5)c4)(CC2)CC3)no1` [Example 571, N-(3-cyclopropylphenyl)-N-((4-(5-(1,1-difluoroethyl)-1,2,4-oxadiazol-3-yl)bicyclo[2.2.2]octan-1-yl)methyl)-3-fluorobicyclo[1.1.1]pentane-1-carboxamide] has an EC50 [1] of 47 nM.

For `CN1CCN(c2cccc(N(CC34CCC(c5nc(C6CC6)no5)(CC3)CC4)C(=O)C34CC(F)(C3)C4)c2)CC1` [Example 416, N-((4-(3-cyclopropyl-1,2,4-oxadiazol-5-yl)bicyclo[2.2.2]octan-1-yl)methyl)-3-fluoro-N-(3-(4-methylpiperazin-1-yl)phenyl)bicyclo[1.1.1]pentane-1-carboxamide], the EC50 [1] was 1060 nM.

For `COc1ccc(-c2cccc(N(CC34CCC(c5nc(C6CC6)no5)(CC3)CC4)C(=O)C34CC(F)(C3)C4)c2)cn1` [Example 249, N-((4-(3-cyclopropyl-1,2,4-oxadiazol-5-yl)bicyclo[2.2.2]octan-1-yl)methyl)-3-fluoro-N-(3-(6-methoxypyridin-3-yl)phenyl)bicyclo[1.1.1]pentane-1-carboxamide], the EC50 [1] was 153 nM.

For `N#Cc1cc2c(nc1-c1cccc(N(CC34CCC(c5nc(C6CC6)no5)(CC3)CC4)C(=O)C34CC(F)(C3)C4)c1)CCOC2` [Example 328, N-(3-(3-cyano-7,8-dihydro-5H-pyrano[4,3-b]pyridin-2-yl)phenyl)-N-((4-(3-cyclopropyl-1,2,4-oxadiazol-5-yl)bicyclo[2.2.2]octan-1-yl)methyl)-3-fluorobicyclo[1.1.1]pentane-1-carboxamide], the EC50 [1] was 339 nM.

For `Cn1nc(C23CCC(CN(C(=O)C45CC(F)(C4)C5)c4cccc(-c5ccc(NS(C)(=O)=O)cc5)c4)(CC2)CC3)cc1C1CC1` [Example 406, N-((4-(5-cyclopropyl-1-methyl-1H-pyrazol-3-yl)bicyclo[2.2.2]octan-1-yl)methyl)-3-fluoro-N-(4′-(methylsulfonamido)-[1,1′-biphenyl]-3-yl)bicyclo[1.1.1]pentane-1-carboxamide], the EC50 [1] was 203 nM.

For `Cn1ncc2cc(C#N)c(-c3cccc(N(CC45CCC(c6nc(C7CC7)no6)(CC4)CC5)C(=O)C45CC(F)(C4)C5)c3)nc21` [Example 313, N-(3-(5-cyano-1-methyl-1H-pyrazolo[3,4-b]pyridin-6-yl)phenyl)-N-((4-(3-cyclopropyl-1,2,4-oxadiazol-5-yl)bicyclo[2.2.2]octan-1-yl)methyl)-3-fluorobicyclo[1.1.1]pentane-1-carboxamide], the EC50 [1] was 194 nM.

Molecule `O=C(N(CC12CCC(c3nc(C4CC4)no3)(CC1)CC2)c1cccc(-c2cccn3ccnc23)c1)C12CC(F)(C1)C2` [Example 330, N-((4-(3-cyclopropyl-1,2,4-oxadiazol-5-yl)bicyclo[2.2.2]octan-1-yl)methyl)-3-fluoro-N-(3-(imidazo[1,2-a]pyridin-8-yl)phenyl)bicyclo[1.1.1]pentane-1-carboxamide] has an EC50 [1] of 392 nM.

`CCOc1ncc(-c2cccc(N(CC34CCC(c5cc(C6CC6)nn5C)(CC3)CC4)C(=O)C34CC(F)(C3)C4)c2)cn1` [Example 413, N-((4-(3-cyclopropyl-1-methyl-1H-pyrazol-5-yl)bicyclo[2.2.2]octan-1-yl)methyl)-N-(3-(2-ethoxypyrimidin-5-yl)phenyl)-3-fluorobicyclo[1.1.1]pentane-1-carboxamide] showed an EC50 [1] of 192 nM.

`O=C(N(CC12CCC(c3nc(C4CC4)no3)(CC1)CC2)c1cccc(-c2cc(C(F)(F)F)c3ncnn3c2)c1)C12CC(F)(C1)C2` [Example 263, N-((4-(3-cyclopropyl-1,2,4-oxadiazol-5-yl)bicyclo[2.2.2]octan-1-yl)methyl)-3-fluoro-N-(3-(8-(trifluoromethyl)-[1,2,4]triazolo[1,5-a]pyridin-6-yl)phenyl)bicyclo[1.1.1]pentane-1-carboxamide] gave an EC50 [1] of 2710 nM.

Molecule `O=C(N(CC12CCC(c3nc(C4CC4)no3)(CC1)CC2)c1cccc(-c2cc(Br)cn3ncnc23)c1)C12CC(F)(C1)C2` [Example 326, N-(3-(6-bromo-[1,2,4]triazolo[1,5-a]pyridin-8-yl)phenyl)-N-((4-(3-cyclopropyl-1,2,4-oxadiazol-5-yl)bicyclo[2.2.2]octan-1-yl)methyl)-3-fluorobicyclo[1.1.1]pentane-1-carboxamide] has an EC50 [1] of 782 nM.

`CC(C)(O)c1ccc(-c2cccc(N(CC34CCC(c5noc(C(C)(C)F)n5)(CC3)CC4)C(=O)NCC3(S(C)(=O)=O)CC3)c2)cc1` [Example 642] showed an EC50 of 294 nM.

Work on `CCOc1ncc(-c2ccnc(N(CC34CCC(c5noc(C(C)(C)C)n5)(CC3)CC4)C(=O)C34CC(F)(C3)C4)c2)cn1` [Example 531, N-((4-(5-(tert-butyl)-1,2,4-oxadiazol-3-yl)bicyclo[2.2.2]octan-1-yl)methyl)-N-(4-(2-ethoxypyrimidin-5-yl)pyridin-2-yl)-3-fluorobicyclo[1.1.1]pentane-1-carboxamide] yielded an EC50 [1] of 159 nM.

Molecule `Cn1nc(C2CC2)cc1C12CCC(CN(C(=O)C34CC(F)(C3)C4)c3cc(-c4ccc(NS(C)(=O)=O)cc4)ccn3)(CC1)CC2` [Example 547, N-((4-(3-cyclopropyl-1-methyl-1H-pyrazol-5-yl)bicyclo[2.2.2]octan-1-yl)methyl)-3-fluoro-N-(4-(4-(methylsulfonamido)phenyl)pyridin-2-yl)bicyclo[1.1.1]pentane-1-carboxamide] has an EC50 of 251 nM.

In the case of `Cc1nc2ccc(-c3cccc(N(CC45CCC(c6ccc(C#N)cc6)(CC4)OC5)C(=O)C45CC(F)(C4)C5)c3)cc2s1` [Example 568, N-((1-(4-Cyanophenyl)-2-oxabicyclo[2.2.2]octan-4-yl)methyl)-3-fluoro-N-(3-(2-methylbenzo[d]thiazol-6-yl)phenyl)bicyclo[1.1.1]pentane-1-carboxamide], the EC50 [1] is reported as 2440 nM.

For `COc1nccc(-c2cccc(N(CC34CCC(c5nc(C6CC6)no5)(CC3)CC4)C(=O)C3CCC(F)(F)C3)c2)n1` (stereo not drawn) [Example 245, N-((4-(3-cyclopropyl-1,2,4-oxadiazol-5-yl)bicyclo[2.2.2]octan-1-yl)methyl)-3,3-difluoro-N-(3-(2-methoxypyrimidin-4-yl)phenyl)cyclopentane-1-carboxamide], the EC50 [1] was 538 nM.

Molecule `Cc1nc2ncc(-c3cccc(N(CC45CCC(c6nc(C(C)(C)C)no6)(CC4)CC5)C(=O)C45CC(F)(C4)C5)c3)cc2s1` [Example 365, N-((4-(3-(tert-butyl)-1,2,4-oxadiazol-5-yl)bicyclo[2.2.2]octan-1-yl)methyl)-3-fluoro-N-(3-(2-methylthiazolo[4,5-b]pyridin-6-yl)phenyl)bicyclo[1.1.1]pentane-1-carboxamide] has an EC50 [1] of 84 nM.

`CC(C)c1cc(C23CCC(CN(C(=O)OC(C)(C)C(F)(F)F)c4cc(-c5ccc(C(C)(C)O)cc5)ccn4)(CC2)CC3)n(C)n1` [Example 661, 1,1,1-trifluoro-2-methylpropan-2-yl (4-(4-(2-hydroxypropan-2-yl)phenyl)pyridin-2-yl)((4-(3-isopropyl-1-methyl-1H-pyrazol-5-yl)bicyclo[2.2.2]octan-1-yl)methyl)carbamate] was tested, and the EC50 [1] was 53 nM.

With `CC(C)(C)c1nc(C23CCC(CN(C(=O)C45CC(F)(C4)C5)c4cncc(-c5cnc6nc(C7CC7)sc6c5)c4)(CC2)CC3)no1` [Example 480, N-((4-(5-(tert-butyl)-1,2,4-oxadiazol-3-yl)bicyclo[2.2.2]octan-1-yl)methyl)-N-(5-(2-cyclopropylthiazolo[4,5-b]pyridin-6-yl)pyridin-3-yl)-3-fluorobicyclo[1.1.1]pentane-1-carboxamide] the EC50 was 988 nM.

With `CS(=O)(=O)Nc1ccc(-c2cccc(N(CC34CCC(c5ccc(C(F)(F)F)cn5)(CC3)CC4)C(=O)C34CC(F)(C3)C4)c2)cc1` [Example 488, 3-fluoro-N-(4′-(methylsulfonamido)-[1,1′-biphenyl]-3-yl)-N-((4-(5-(trifluoromethyl)pyridin-2-yl)bicyclo[2.2.2]octan-1-yl)methyl)bicyclo[1.1.1]pentane-1-carboxamide] the EC50 was 876 nM.

Work on `CC1(c2nc(C34CCC(CN(C(=O)C56CC(F)(C5)C6)c5cccc(-c6cnc(C(F)(F)F)nc6)c5)(CC3)CC4)no2)CC1` [Example 404, 3-fluoro-N-((4-(5-(1-methylcyclopropyl)-1,2,4-oxadiazol-3-yl)bicyclo[2.2.2]octan-1-yl)methyl)-N-(3-(2-(trifluoromethyl)pyrimidin-5-yl)phenyl)bicyclo[1.1.1]pentane-1-carboxamide] yielded an EC50 [1] of 221 nM.

For `Cc1cnc(-c2cccc(N(CC34CCC(c5noc(C(C)(C)C)n5)(CC3)CC4)C(=O)C34CC(F)(C3)C4)c2)nc1` [Example 454, N-((4-(5-(tert-butyl)-1,2,4-oxadiazol-3-yl)bicyclo[2.2.2]octan-1-yl)methyl)-3-fluoro-N-(3-(5-methylpyrimidin-2-yl)phenyl)bicyclo[1.1.1]pentane-1-carboxamide], the EC50 [1] was 31 nM.

With `O=C(N(CC12CCC(c3nc(C4CC4)no3)(CC1)CC2)c1cccc(-c2cnc3nc(C4CC4)sc3c2)c1)C12CC(F)(C1)C2` [Example 276, N-((4-(3-cyclopropyl-1,2,4-oxadiazol-5-yl)bicyclo[2.2.2]octan-1-yl)methyl)-N-(3-(2-cyclopropylthiazolo[4,5-b]pyridin-6-yl)phenyl)-3-fluorobicyclo[1.1.1]pentane-1-carboxamide] the EC50 [1] was 77.5 nM.

`O=C(N(CC12CCC(c3nc(C4CC4)no3)(CC1)CC2)c1cccc(-c2ccc3[nH]c(=O)oc3c2)c1)C12CC(F)(C1)C2` [Example 261, N-((4-(3-cyclopropyl-1,2,4-oxadiazol-5-yl)bicyclo[2.2.2]octan-1-yl)methyl)-3-fluoro-N-(3-(2-oxo-2,3-dihydrobenzo[d]oxazol-6-yl)phenyl)bicyclo[1.1.1]pentane-1-carboxamide] was tested, and the EC50 [1] was 48 nM.

In the case of `CC(C)Oc1ccc(-c2cccc(N(CC34CCC(c5noc(C(C)(C)F)n5)(CC3)CC4)C(=O)OC(C)(C)C(F)(F)F)c2)cc1` [Example 584, 1,1,1-trifluoro-2-methylpropan-2-yl ((4-(5-(2-fluoropropan-2-yl)-1,2,4-oxadiazol-3-yl)bicyclo[2.2.2]octan-1-yl)methyl)(4′-isopropoxy-[1,1′-biphenyl]-3-yl)carbamate], the EC50 [1] is reported as 31 nM.
